Assay results as given in PubChem BioAssay (NCI).
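Dose response: 5 concentrations. Exposure: 48 h. Format: 96-well plates. Endpoint: linear interpolation; highest concentration if not reached. Here, GI50 denotes the concentration required for 50% inhibition of growth. TGI is the concentration that stops growth completely.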

How the values were obtained:
Assay in all cases: NCI tumour cell line growth inhibition, 48 h
UACC-62 melanoma = tested on: UACC-62 melanoma
MALME-3M melanoma = tested on: MALME-3M melanoma
SN12C renal = tested on: SN12C renal
HS 578T breast = tested on: HS 578T breast
NCI-H460 lung = tested on: NCI-H460 lung
SK-MEL-2 melanoma = tested on: SK-MEL-2 melanoma
HCC-2998 colon = tested on: HCC-2998 colon
LOX IMVI melanoma = tested on: LOX IMVI melanoma
OVCAR-3 ovarian = tested on: OVCAR-3 ovarian
HCT-116 colon = tested on: HCT-116 colon
MDA-MB-231 breast = tested on: MDA-MB-231 breast
HOP-62 NSCLC = tested on: HOP-62 NSCLC
M14 melanoma = tested on: M14 melanoma
RXF 393 renal = tested on: RXF 393 renal
IGROV1 ovarian = tested on: IGROV1 ovarian
MOLT-4 leukemia = tested on: MOLT-4 leukemia
OVCAR-5 ovarian = tested on: OVCAR-5 ovarian
SF-268 CNS = tested on: SF-268 CNS
A498 renal = tested on: A498 renal
SNB-75 CNS = tested on: SNB-75 CNS
COLO 205 colon = tested on: COLO 205 colon
K-562 leukemia = tested on: K-562 leukemia
NCI-H522 lung = tested on: NCI-H522 lung
PC-3 prostate = tested on: PC-3 prostate
NCI-H226 lung = tested on: NCI-H226 lung
SK-MEL-5 melanoma = tested on: SK-MEL-5 melanoma
UACC-257 melanoma = tested on: UACC-257 melanoma
SNB-19 CNS = tested on: SNB-19 CNS
ACHN renal = tested on: ACHN renal

CS(=O)c1nccc(-c2c(-c3ccc(F)c(OCc4ccc(F)cc4)c3)nc3sccn23)n1 (configuration not stated)
GI50 (UACC-62 melanoma): 32.1 µM
TGI (UACC-62 melanoma): > 100 µM
GI50 (MALME-3M melanoma): > 100 µM
TGI (MALME-3M melanoma): > 100 µM
GI50 (SN12C renal): > 100 µM
TGI (SN12C renal): > 100 µM
GI50 (HS 578T breast): 73.1 µM
TGI (HS 578T breast): > 100 µM
GI50 (NCI-H460 lung): 3.78 µM
TGI (NCI-H460 lung): 14.3 µM
GI50 (SK-MEL-2 melanoma): 71.8 µM
TGI (SK-MEL-2 melanoma): > 100 µM
GI50 (HCC-2998 colon): 10.2 µM
TGI (HCC-2998 colon): 23.6 µM
GI50 (LOX IMVI melanoma): 74.6 µM
TGI (LOX IMVI melanoma): > 100 µM
GI50 (OVCAR-3 ovarian): 2.84 µM
TGI (OVCAR-3 ovarian): 10.7 µM
GI50 (HCT-116 colon): 5.08 µM
TGI (HCT-116 colon): 20.8 µM
GI50 (MDA-MB-231 breast): 26.8 µM
TGI (MDA-MB-231 breast): > 100 µM
GI50 (HOP-62 NSCLC): 17.7 µM
TGI (HOP-62 NSCLC): 40.6 µM
GI50 (M14 melanoma): 35.1 µM
TGI (M14 melanoma): > 100 µM
GI50 (RXF 393 renal): 16.5 µM
TGI (RXF 393 renal): 63.8 µM
GI50 (IGROV1 ovarian): 4.14 µM
TGI (IGROV1 ovarian): 17.1 µM
GI50 (MOLT-4 leukemia): 10.2 µM
TGI (MOLT-4 leukemia): 90.2 µM
GI50 (OVCAR-5 ovarian): > 100 µM
TGI (OVCAR-5 ovarian): > 100 µM
GI50 (SF-268 CNS): 19.5 µM
TGI (SF-268 CNS): 57.6 µM
GI50 (A498 renal): > 100 µM
TGI (A498 renal): > 100 µM
GI50 (SNB-75 CNS): > 100 µM
TGI (SNB-75 CNS): > 100 µM
GI50 (COLO 205 colon): > 100 µM
TGI (COLO 205 colon): > 100 µM
GI50 (K-562 leukemia): 6.53 µM
TGI (K-562 leukemia): > 100 µM
GI50 (NCI-H522 lung): 60.6 µM
TGI (NCI-H522 lung): > 100 µM
GI50 (PC-3 prostate): 11.3 µM
TGI (PC-3 prostate): 34.1 µM
GI50 (NCI-H226 lung): > 100 µM
TGI (NCI-H226 lung): > 100 µM
GI50 (SK-MEL-5 melanoma): 44 µM
TGI (SK-MEL-5 melanoma): > 100 µM
GI50 (UACC-257 melanoma): 15 µM
TGI (UACC-257 melanoma): 36.5 µM
GI50 (SNB-19 CNS): 14.9 µM
TGI (SNB-19 CNS): 38.6 µM
GI50 (ACHN renal): 16.9 µM
